Experimental data taken from patent US20010041743A1, “Use of cyclopentenone derivatives for bone and periodontal regeneration” (priority 2000, published 2001).
“Also recorded” adds a separate entry of the source.

How the values were obtained:
[1] = tested on: transcortical defects in rat femurs; test: Titanium enclosure model of bone regeneration (histomorphometry of cortical defect); format: in vivo; details: for percentage of new bone formation in cortical defect area (bone growth): rat femur, control value 40%
Procedure: (§1) In one study, bone regeneration and gene expression was assayed using a titanium enclosure model, as described in Example 1 (FIG. 1). Briefly, transcortical defects were created surgically in rat femurs. A collagen sponge, loaded with a varying concentration of Δ^12PGJ2 was applied to each defect. The collagen sponge was secured by placement of the titanium enclosure, which served as a rigid and fixed geometry cell exclusion barrier. Animals were sacrificed at 10 days and bone tissue sections were prepared for immunohistology to quantify growth factor expression. Tissue sections from treated animals were also analyzed morphometrically to assess de novo bone formation of the defect areas.
Titanium enclosures were prepared by trimming and carving 0.1 mm thickness titanium plate to half cylindrical shape which had 8×1.5×2 mm in length, height, and width respectively. Both ends of the enclosures were sealed with surgical grade, self curing acrylic resin to form a closed half cylinder which is open only in the sagittal direction. The enclosures were then washed in an ultrasonic cleaning machine and autoclaved to sterilize and to create a titanium oxide surface prior to use.
Twenty-eight male Wistar rats, aged 8 weeks and weighing 350-400 g were randomly separated into 4 groups that received varying doses of Δ^12PGJ2. Two rats were housed in each cage with free access to normal laboratory diet and water ad libitum. After 7 days of acclimatization, the animals were initially anesthetized intramuscularly with Sodium pentobarbital (Nembutal sodium solution, Abbott Laboratories, Chicago, Ill.) at a dosage of 75 mg/kg of body weight. The area of intended surgery was shaved and disinfected using 90% ethyl alcohol. After pupillary reflex was inhibited, a 3-cm incision was made through skin and muscle parallel to the long axis over the dorsal aspect of both left and right femoral bone. The periosteum was incised and removed from the surface of the bone, creating an exposed area of sufficient size to place the open face of the cylindrical enclosure directly on the bone surface. Subsequently, a 5×1.5 mm transcortical defect was made through the cortical bone into the bone marrow at the midshaft region using round and cylindrical steel burs and a low speed micromotor machine. A sufficiently sterile 0.9% saline solution was used as a coolant to avoid heat-induced necrosis of surrounding bone. The femoral bone on one side of the animal was randomly chosen for treatment with Δ^12PGJ2, and the contralateral side was used as a control. FIG. 1 depicts a schematic diagram of the titanium enclosure model.
(§2) Δ^12PGJ2 (Cayman Chemical, Ann Arbor, Mich.) was diluted in 0.9% NaCl, pH 7.2, to the final concentration of 1×10^−3, 1×10^−5, 1×10^−7, and 1×10^−9 M. An absorbable collagen sponge (Colla-Tec Inc. Plainsboro, N.J.) 5×1.5 mm dimensions was used as a carrier. 10 μl of each Δ^12PGJ2 solution were loaded into the collagen carrier and then the carrier was placed inside the half cylindrical titanium enclosure. This provided a dosage of 3.0 μg, 30 ng, 0.3 ng, and 3 pg Δ^12PGJ2 in each of five standardized defects. The remaining volume inside the enclosure was filled with blood collected from the defect. The enclosure was inverted, placed over the defect, and stabilized by circumosseous wiring around the femoral bone using #010 orthodontic wire. […] The animals were monitored every day after surgery for indication of post-operative reactions. […]

PDGF-B = test: Immunohistochemistry of PDGF-B expression in the titanium enclosure model; format: in vivo, rat; details: for PDGF-B expression in the area of the defect: 10 days
Procedure: as §1, §2
The area and average intensity of positive immunostaining were measured using a microscope connected to a computerized video digital system (JAVA video analysis software, Jandel Scientific, Corte Madera, Calif.) at a magnification of 100×. Three to five sections were analyzed for each femur and the data from all sections were pooled to reflect a mean value for each bone defect. […]

BMP-6 = test: Immunohistochemistry of BMP-6 expression in the titanium enclosure model; format: in vivo, rat; details: no concentration stated
Procedure: as §1
(§3) Δ^12PGJ2 (Cayman Chemical, Ann Arbor, Mich.) was diluted in 0.9% NaCl, pH 7.2, to the final concentration of 1×10^−3, 1×10^−5, 1×10^−7, and 1×10^−9 M. An absorbable collagen sponge (Colla-Tec Inc. Plainsboro, N.J.) 5×1.5 mm dimensions was used as a carrier. […] The animals were monitored every day after surgery for indication of post-operative reactions. […]
(§4) The area and average intensity of positive immunostaining were measured using a microscope connected to a computerized video digital system (JAVA video analysis software, Jandel Scientific, Corte Madera, Calif.) at a magnification of 100×. […]

PDGF-A = test: Immunohistochemistry of PDGF-A expression in the titanium enclosure model; format: in vivo, rat; details: no concentration stated
Procedure: as §1, §3, §4

BMP-2 = test: Immunohistochemistry of BMP-2 expression in the titanium enclosure model; format: in vivo, rat; details: no concentration stated
Procedure: as §1, §3, §4

[2] = tested on: titanium implants placed in the rat femur; test: Titanium implant model of bone regeneration (bone height and width around implant); format: in vivo; details: for bone growth (height and width) around implant: versus control vehicle
Procedure: In a second study, titanium implants were placed in the rat femurto mimic human dental implant placement, as described in Example 2. Bone healing and regeneration around the implants was assessed following treatment with implants loaded with Δ^12PGJ2.
Six male Wistar rats were anesthetized as described in Example 1 for the placement of 4 titanium implants in each animal. Implants were fabricated from surgical grade titanium 1.5 mm in diameter, 2.5 mm in length with machined threads, cleaned bysonication and autoclaved prior to use. Implant sites were prepared with cooling using a dental high speed hand piece. One test and one control implant site were prepared for placement of 5 μl of test or control solution, followed by implant placement. Control implants comprised vehicle only (10% carboxymethylcellulose in normal saline). For test sites, 10^−3M or 10^−5M Δ^12PGJ2 was applied to the site following placement of the implant. Animals were monitored for 3 or 8 weeks following implantation.
Femur bones were collected and fixed in 4% paraformaldehyde, 0.1 M phosphate buffer. Samples were cleared through sequential washings of graded alcohol followed by xylene. Bones were embedded in methacrylate and sectioned with a low speed diamond saw and stained with Toluidine Blue. Two different quantitative measurements were derived from each implant to measure the amount of bone regenerated around each implant. These measurements represent the bone height from the endosteal surface to the most apical bone contact area of the implant and the mean width of that same bone calculated using three measurement references, including the endosteal surface (ES), ES +130 microns, and ES +260 microns.

[3] = treated versus control injuries, 10^−3M or 10^−5M applied to site

CCCCCC(O)CC=C1C(=O)C=CC1C/C=C\CCCC(=O)O (stereo not drawn) [Δ^12PGJ2, Δ^12-13,14-dihydro-9-deoxy-Δ^9-prostaglandin D2]
bone volume following administration (FIG. 2) [1]: increase in bone volume
percentage of new bone formation in cortical defect area (bone growth) ([1]; 30 ng dose in collagen sponge, 10 days): 53 % volume
increase in total bone area following treatment ([1]; 3.0 μg and 30 ng doses versus control, 10 days): ~33%
percentage of new bone formation in cortical defect area (bone growth) ([1]; 3.0 μg dose in collagen sponge, 10 days): 54 % volume
percentage of new bone formation, dose dependence ([1]; doses 3 pg to 3.0 μg, 10 days): increased in a dose-dependent manner
PDGF-B expression in the area of the defect (PDGF-B; 10^−3M): significant increase
PDGF-B expression in the area of the defect (PDGF-B; 10^−5M): significant increase
PDGF-B expression / induction (general statement) (PDGF-B; no concentration stated): increase in PDGF-B expression; also recorded: potent and dose-dependent inducer
BMP-6 expression / induction (BMP-6): increase in BMP-6 expression; also recorded: potent and dose-dependent inducer
PDGF-A induction (PDGF-A): potent and dose-dependent inducer
BMP-2 induction (BMP-2): potent and dose-dependent inducer
bone growth (height and width) around implant ([2]; 3 weeks after administration): Significantly increased bone growth
bone growth (height and width) around implant ([2]; 8 weeks after administration): Significantly increased bone growth
bone height around implant [2, 3]: significantly increased
bone width around implant [2, 3]: significantly increased
